From article PMC5500575, “Identification of Histamine H3 Receptor Ligands Using a New Crystal Structure Fragment-based Method” (Scientific Reports, 2017)
“Also recorded” adds a separate entry of the source.

Key:
H3 receptor = target: H3 receptor; parameters: method as in ChEMBL [64]; conditions: known H3 ligand; ref ChEMBL [64]; cited from earlier work
human H3 receptor = target: T1, human H3 receptor (Homo sapiens, UniProt Q9Y5N1); test: [3H]N-α-methylhistamine radioligand competition binding assay; conditions: for Ki / Affinity (pKi): 0.3 nM [3H]N-α-methylhistamine; for Ki: Cheng-Prusoff with Kd 0.15 nM; for Affinity (pKi): ± SEM; for Change of potency upon repeated experimentation: possibly due to compound breakdown; for Competition with [3H]N-α-methylhistamine binding (in words): 0.3 nM radioligand, NSB defined with 10 µM histamine
T1 construct: expressed in transfected cells; host or cells: HEK-293T cells, membranes
Description: HEK-239T cells were grown to 70% confluency in 150 mm cell culture dishes and transfected with 8 µg human H3 receptor using the Polyfect transfection reagent as previously described. After 48 hours, cells were washed from each cell culture dish with Dulbecco’s phosphate buffered saline and harvested using a cell scraper. The resulting cell suspension was then centrifuged and resuspended in 500 µL lysis buffer (50 mM Tris-HCl, pH 7.4). The cell lysate was centrifuged at 16,000 g for 20 minutes at 4 °C. The resultant membrane pellets were stored at −80 °C until use. Each pellet was resuspended in 500 µL binding buffer (50 mM Tris-HCl, 0.5 mM EDTA, pH 7.4), homogenized and centrifuged at 16,000 g for 15 minutes at 4 °C, and subsequently resuspended in 15 mL of binding buffer to a desired protein concentration of approximately 0.2 mg/mL as determined by the method of Bradford[73]. The membrane solution (30 µg protein per well) was incubated for 90 minutes in 250 µL of binding buffer, with or without compound, together with 0.3 nM [^3H]N-α-methylhistamine at room temperature. Non-specific binding was defined as the radioligand bound to membrane solution incubated with 10 µM histamine. The binding reaction was terminated by rapid filtration through Whatman GF/C unifilters (PerkinElmer), and washed four times with ice-cold wash buffer (50 mM Tris-HCl, 10 mM MgCl2, 0.1 mM EDTA, pH 7.4) using a 96-well Packard FilterMate cell harvester (PerkinElmer). Finally, Microscint 0 scintillation liquid (PerkinElmer) was added to the dried filters, and the radioactivity quantified in a Packard TopCount NXT microplate Scintillation Counter (PerkinElmer).
The binding data was fitted by nonlinear regression to equation (3):3 Y=Ymax+Ymax−Ymin/1+10^X−logIC50 where X is the logarithm of the concentration, Y is the specific binding, Y max is the maximal specific binding, Y min is the minimal specific binding, and IC50 is the concentration giving half-maximum reduction in specific binding.

[1] = target: T2, human histamine H3 receptor (Homo sapiens, UniProt Q9Y5N1); test: IP-One (HTRF IP1 accumulation) assay, H3 receptor co-expressed with chimeric Gqi5 in tsA201 cells; format: cell-based; conditions: antagonist mode; for Result of first pharmacological assaying (pharmacophore screening hits): 20 µM compound, EC80 histamine; for IC50 / pIC50 ± SEM: in the presence of EC80 of histamine
T2 construct: expressed in transfected cells; host or cells: tsA201 cells (transformed HEK-293), transient transfection
Description: Human tsA201 cells, a transformed HEK-293 cell line[70], were cultivated in Dulbecco’s Modified Eagle’s Medium (DMEM) with GlutaMAX, supplemented with 10% foetal bovine serum, penicillin 100 U/ml and streptomycin 100 µg/ml. Subconfluent cells grown in a 100 mm dish were transfected with 5 μg DNA using the Polyfect transfection reagent using the protocol of the manufacturer (Qiagen, West Sussex, UK), however with half of the recommended PolyFect volumes. Co-transfections (ratio 4:1) were performed with either constructs expressing the human histamine H3 receptor together with an empty vector and chimeric G protein Gqi5, respectively.
We applied the highly sensitive high-throughput homogeneous time-resolved fluorescence (HTRF) technology[71] for detection of IP-One generation using the Cisbio IP-One Tb assay kit, exactly as previously described. In brief, on the day of assay, ligand solutions were prepared in ligand buffer (Hank’s Balanced Salt Solution (HBSS) containing 20 mM HEPES pH 7.4, 1 mM CaCl2, 1 mM MgCl2, 40 mM LiCl)) and added to the wells of a 384-well OptiPlate (PerkinElmer, Waltham, USA) in triplicates. When testing for antagonist activity the ligand buffer was supplemented with an EC80 concentration of histamine, and we used a final compound concentration of 20 µM and 2 µM for the first (virtual hits) and second (analogues) screening, respectively. Cell suspensions were added and incubated with ligands for 1 hour, followed by the addition of detection solution (IP-One Tb conjugate & Lysis Buffer +2.5% anti-IP1 cryptate Tb conjugate +2.5% IP1-d2 conjugate. 38:1:1) and incubation in the dark for one hour at room temperature. The plate was read on an EnVision 2104 Multilabel Reader (PerkinElmer) by exciting the wells with light of 340 nm and measuring the emission at 615 nm and 665 nm. The fluorescence resonance energy transfer ratios (665 nm/615 nm) were converted to IP1 concentrations by interpolating values from an IP1 standard curve generated from an IP1 calibration stock, provided by the manufacturer (Cisbio).
Data were analysed using GraphPad Prism 6 (GraphPad Software, San Diego, CA, USA). Concentration-response curves were fitted by nonlinear regression to equation (1):1 R=Rmax+Rmax−Rmin/1+10^(logIC50−X)∗nH where X is the logarithm of the concentration, R is the response, R max is the maximal response, R min is the minimal response, IC50 is the concentration giving half-maximum reduction of the response, and nH is the Hill coefficient, which describes the steepness of the curve. IP-One assay results are reported either as raw FRET in arbitrary units, as IP1 concentration (nM) or as fold over basal (normalized to the basal level of IP1 in ligand buffer [IP1]/[IP1]basal). The Z′-factors were calculated using equation (2):2 Z′=1−3σc++3σc−/|µc+−µc−|

mouse H3 receptor = conditions: Gqi5, Ca2+ release; cited from earlier work

T2 sequence (Q9Y5N1 whole entry): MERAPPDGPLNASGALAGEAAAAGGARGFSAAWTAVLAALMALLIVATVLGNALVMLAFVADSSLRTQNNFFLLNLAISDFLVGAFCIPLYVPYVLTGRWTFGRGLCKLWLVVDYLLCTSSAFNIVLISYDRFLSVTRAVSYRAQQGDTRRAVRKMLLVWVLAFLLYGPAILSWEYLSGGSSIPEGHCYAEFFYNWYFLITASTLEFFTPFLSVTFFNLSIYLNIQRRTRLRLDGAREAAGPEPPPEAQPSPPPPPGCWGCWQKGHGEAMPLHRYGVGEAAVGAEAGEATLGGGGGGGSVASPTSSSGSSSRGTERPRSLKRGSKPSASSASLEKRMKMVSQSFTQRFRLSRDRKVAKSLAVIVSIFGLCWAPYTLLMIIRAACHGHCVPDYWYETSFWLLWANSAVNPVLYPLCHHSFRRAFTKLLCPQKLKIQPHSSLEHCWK
T1 sequence (Q9Y5N1 whole entry): as above

Row | Structure (SMILES) | Affinity (pKi) of most similar ChEMBL ligand (H3 receptor) | Ki (human H3 receptor) [µM] | Affinity (pKi) (human H3 receptor) | Result of first pharmacological assaying (pharmacophore screening hits) [1] | IC50 [1] [µM] | pIC50 ± SEM [1] | also measured
1 | CN(C)CCCNc1c2c(nc3ccccc13)CCCCC2 [ChEMBL 65849] | 8.0 | – | – | – | – | – | –
2 | CN1CCC(C(=O)c2cc3cc(Cl)ccc3[nH]2)CC1 [ChEMBL 186456] | 5.5 | – | – | – | – | – | –
3 | CNCc1cc(C#CCCN2CCNC(=O)C2)ccc1Oc1ccc(SC)cc1 [ChEMBL 237514] | 6.1 | – | – | – | – | – | –
4 | COc1cccc(OCCN2CCC(N3CCCCC3)CC2)c1 [ChEMBL 460313] | 6.9 | – | – | – | – | – | –
5 | c1ccc2c(c1)nc1n(CCN3CCCCC3)cnn21 [ChEMBL 1923529] | 6.2 | – | – | – | – | – | –
6 | OC1(c2ccccn2)CCCN(c2nnc(N3CCC(N4CCCCC4)CC3)s2)C1 (centres unmarked) [ChEMBL 2048591] | 7.3 | – | – | – | – | – | –
7 | CCN(Cc1nc2ccccc2[nH]1)CC1CCCN(CCc2cccc(OC)c2)C1 (centres unmarked) [Compound 9] | – | 1.75 | 5.76±0.25 | seemingly active | – | – | Change of potency upon repeated experimentation (human H3 receptor): continued decrease in potency observed upon repeated experimentation
8 | Cc1nccn1-c1ccc(CNCc2cccc(C#N)c2)cc1F [Compound 20] | – | 4.24 | 5.37±0.12 | borderline activity | – | – | Change of potency upon repeated experimentation (human H3 receptor): continued decrease in potency observed upon repeated experimentation
9 | Cc1nc(N2CCN(c3ncc[nH]c3=O)CC2)c2sccc2n1 [Compound 21] | – | > 50 | – | antagonist hits | 20.9 | 4.68±0.10 | Competition with [3H]N-α-methylhistamine binding (in words) (human H3 receptor): little to no effect on radiolabeled ligand binding; also recorded: unable to compete with binding
10 | CCCCN1CN(CCCN2CCCCC2)Cn2c1nc1ccccc12 [Compound 35] | – | 1.75 | 5.76 ± 0.05 | antagonist hits | 3.3 | 5.5 ± 0.27 | –
11 | Cc1ccc2c(c1)c1c3n2CCN(CC(O)CNCc2ccccc2)C3CCC1 (centres unmarked) [Compound 42] | – | 14.8 | 4.83±0.08 | antagonist hits | 42.1 | 4.38±0.11 | Competition with [3H]N-α-methylhistamine binding (in words) (human H3 receptor): unable to outcompete radiolabeled ligand to NSB levels; also recorded: unable to lower the binding of [^3H]N-α-methylhistamine to non-specific binding levels
12 | Cc1ccc(CN2CCCN(C(=O)CCSCc3cn4ccccc4n3)CC2)cc1 [Compound 44] | – | 2.82 | 5.55±0.06 | seemingly active | – | – | Competition with [3H]N-α-methylhistamine binding (in words) (human H3 receptor): unable to outcompete radiolabeled ligand to NSB levels; also recorded: unable to lower the binding of [^3H]N-α-methylhistamine to non-specific binding levels
13 | CCN1CCNC(=O)C1CC(=O)N1CCc2[nH]c3c(C)cccc3c2C1 (centres unmarked) [Compound 64] | – | 86.7 | 4.06±0.11 | – | 261 | 3.58±0.17 | –
14 | CCCCN1CN(CCCN(C)c2ccccc2)Cn2c1nc1ccccc12 [Compound 68] | – | > 300 | – | – | 22 | 4.66±0.20 | Competition with [3H]N-α-methylhistamine binding (in words) (human H3 receptor): little to no effect on radiolabeled ligand binding; also recorded: unable to compete with binding
15 | Cc1ccc2c(c1)c1c3n2CCN(CC(O)CN2CCN(C)CC2)C3CCC1 (centres unmarked) [Compound 75] | – | 4.82 | 5.32±0.04 | – | 121 | 3.92±0.18 | –
16 | NCCc1c[nH]cn1 [histamine] | – | – | – | – | – | – | EC50 (mouse H3 receptor): 0.0218 µM
